Data on ten molecules can be found in patent publication US8263598B2, “Substituted sulfonamide compounds” (Gruenenthal GmbH, priority 2008, dated 2012).

Experiment [1] deals with T1, B1R receptor of rats (rB1R) (Rattus norvegicus, UniProt P97583).
T1 construct: host or cells: CHO K1 cells
T1 sequence (P97583 1-337): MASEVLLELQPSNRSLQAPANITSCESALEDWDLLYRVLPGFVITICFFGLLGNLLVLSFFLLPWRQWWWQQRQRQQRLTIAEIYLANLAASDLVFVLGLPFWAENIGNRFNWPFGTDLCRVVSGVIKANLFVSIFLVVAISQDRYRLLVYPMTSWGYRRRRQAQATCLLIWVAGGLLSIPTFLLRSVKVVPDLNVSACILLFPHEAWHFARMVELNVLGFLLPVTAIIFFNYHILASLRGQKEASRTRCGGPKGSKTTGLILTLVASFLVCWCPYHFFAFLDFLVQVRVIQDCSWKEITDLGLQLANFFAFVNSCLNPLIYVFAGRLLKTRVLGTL
In words: FLIPR Ca2+ assay on rat bradykinin 1 receptor (CHO K1 rB1R cells). In kind it is cell-based. The note with it: test substance 10 μM; CHO K1 cells with B1R gene of rats; agonist Des-Arg9-bradykinin 100 nM; compared to maximum achievable inhibition. On the procedure:
(§1) The agonistic or antagonistic action of compounds can be quantified on the bradykinin 1 receptor (B1R) of humans and rats with ectopically expressing cell lines (CHO K1 cells) and with the aid of a Ca^2+-sensitive dye (Fluo-4) in the fluorescent imaging plate reader (FLIPR). The figure in percent activation refers to the Ca^2+ signal after addition of Lys-Des-Arg^9-bradykinin (0.5 nM) and Des-Arg^9-bradykinin (100 nM). Antagonists result in a suppression of the Ca^2+ inflow after the addition of the agonist. Percent inhibition values are given in comparison to the maximum achievable inhibition.
(§2) The agonistic or antagonistic action of substances can be determined on the bradykinin 1 receptor (B1R) of humans and rats by means of the following assay.
(§3) According to this assay the Ca^2+ inflow through the channel is quantified by means of a Ca^2+-sensitive dye (Fluo-4 type, Molecular Probes Europe BV, Leiden, Netherlands), in a Fluorescent Imaging Plate Reader (FLIPR, Molecular Devices, Sunnyvale, USA). Method:
(§4) Chinese hamster ovary cells (CHO K1 cells) are used, which are stably transfected with the human B1R gene (hB1R cells, Euroscreen s.a., Gosselies, Belgium), or with the B1R gene of rats (rB1R cells, Axxam, Milan, Italy). For functional investigations these cells are plated out on black 96-well plates with a clear floor (BD Biosciences, Heidelberg, Germany) in a density of 20,000/25,000 cells/well. The cells are incubated overnight with 10 vol. % FBS (foetal bovine serum, Gibco Invitrogen GmbH, Karlsruhe, Germany) at 37° C. and 5% CO2 in a culture medium (hB1R cells: Nutrient Mixture Ham's F12, Gibco Invitrogen GmbH, Karlsruhe, Germany; rB1R cells: D-MEM/F12, Gibco Invitrogen GmbH, Karlsruhe, Germany). The following day the cells are charged for 60 minutes at 37° C. with 2.13 μM Fluo-4 (Molecular Probes Europe BV, Leiden, Netherlands) in HBSS buffer (Hank's buffered saline solution, Gibco Invitrogen GmbH, Karlsruhe, Germany) together with […] (Sigma-Aldrich, Taufkirchen, Germany) and 10 mM HEPES (Sigma-Aldrich, Taufkirchen, Germany).
(§5) The plates are then washed twice with HBSS buffer and HBSS buffer is added which additionally contains 0.1% BSA (bovine serum albumin; Sigma-Aldrich, Taufkirchen, Germany), 5.6 mM glucose and 0.05% gelatin (Merck KGaA, Darmstadt, Germany). After further incubation for 20 minutes at room temperature the plates are used for the Ca^2+ measurement in the FLIPR. The Ca^2+-dependent fluorescence is measured both before and after the addition of substances (λex=488 nm, λem=540 nm). The quantification is carried out by measuring the highest fluorescence intensity (FC, fluorescence counts) over time.
(§6) The FLIPR protocol consists of two substance additions. First of all test substances (10 μM) are pipetted onto the cells and the Ca^2+ inflow is compared with the control (hB1R: Lys-Des-Arg9-bradykinin 0.5 nM; rB1R: Des-Arg9-bradykinin 100 nM). This gives the result in percent activation referred to the Ca^2+ signal after addition of Lys-Des-Arg9-bradykinin (0.5 nM), bzw. Des-Arg9-bradykinin (100 nM). After 10 minutes' incubation 0.5 nM Lys-Des-Arg9-bradykinin (hB1R) and 100 nM Des-Arg^9-bradykinin (rB1R) are applied and the inflow of Ca^2+ is likewise determined. Antagonists lead to a suppression of the Ca^2+ inflow. The percent inhibition compared to the maximum achievable inhibition is calculated. The compounds show a good activity on both human and rat receptors.
(§7) The agonistic and antagonistic action of the compounds according to the invention on the bradykinin 1 receptor (B1R) of humans and rats were determined as described above. Antagonists lead to a suppression of the Ca^2+ inflow. The % inhibition compared to the maximum achievable inhibition was calculated.

The target in experiment [2] is T2, human B1R receptor (hB1R) (Homo sapiens, UniProt P46663).
T2 construct: host or cells: CHO K1 cells
T2 sequence (P46663 1-353): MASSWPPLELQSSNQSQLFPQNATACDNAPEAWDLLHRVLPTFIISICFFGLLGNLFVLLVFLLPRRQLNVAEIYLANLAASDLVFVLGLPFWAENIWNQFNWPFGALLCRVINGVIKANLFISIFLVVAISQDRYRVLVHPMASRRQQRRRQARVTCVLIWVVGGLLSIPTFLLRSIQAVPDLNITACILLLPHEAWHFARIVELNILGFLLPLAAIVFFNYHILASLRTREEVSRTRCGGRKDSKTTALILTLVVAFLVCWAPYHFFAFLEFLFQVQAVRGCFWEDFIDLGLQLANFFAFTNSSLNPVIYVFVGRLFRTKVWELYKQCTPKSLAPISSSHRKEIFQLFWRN
In words: FLIPR Ca2+ assay on human bradykinin 1 receptor (CHO K1 hB1R cells). The experiment is classed as cell-based. Conditions: test substance 10 μM; CHO K1 cells with human B1R gene; agonist Lys-Des-Arg9-bradykinin 0.5 nM; compared to maximum achievable inhibition. The procedure:
as §1, §2, §3, §4, §5, §6, §7

As usually defined, the inhibition is the relative decrease from the control value, in per cent. Turning to `COc1cc(C)c(S(=O)(=O)N(CCOCC(=O)N2CCn3cccc3C2C(C)(C)C)Cc2ccccc2)c(C)c1` (stereo not drawn) [Example 44, N-benzyl-N-(2-(2-(1-tert-butyl-3,4-dihydropyrrolo[1,2-a]pyrazin-2(1H)-yl)-2-oxoethoxy)ethyl)-4-methoxy-2,6-dimethylbenzenesulfonamide], the inhibition at 10 µM in experiment [1] came to 98%; in experiment [2], 88%.
The corresponding values for `COc1cc(C)c(S(=O)(=O)N(CCOCC(=O)N2CCn3ccnc3C2)Cc2ccccc2)c(C)c1` [Example 46, N-benzyl-N-(2-(2-(5,6-dihydroimidazo[1,2-a]pyrazin-7(8H)-yl)-2-oxoethoxy)ethyl)-4-methoxy-2,6-dimethylbenzenesulfonamide] are 96% and 41%.
The corresponding values for `COc1c(C)cc(S(=O)(=O)N(C)CCOCC(=O)N2CCn3c(CN(C)C)ccc3C2c2ccccc2)c(C)c1C` (stereo not drawn) [Example 105, N-(2-(2-(6-((dimethylamino)methyl)-1-phenyl-3,4-dihydropyrrolo[1,2-a]pyrazin-2(1H)-yl)-2-oxoethoxy)ethyl)-4-methoxy-N,2,3,5-tetramethylbenzene-sulfonamide] are 100% and 100%.
In the same order, the values of `COc1cc(C)c(S(=O)(=O)N(C)CCOCC(=O)N2CCn3cccc3C2C(C)(C)C)c(C)c1C` (stereo not drawn) [Example 79, N-(2-(2-(1-tert-butyl-3,4-dihydropyrrolo[1,2-a]pyrazin-2(1H)-yl)-2-oxoethoxy)ethyl)-4-methoxy-N,2,3,6-tetramethylbenzenesulfonamide] are 100% and 101%.
As for `COc1cc(C)c(S(=O)(=O)N(C)CCOCC(=O)N2CCn3cc(Cc4ccncc4)nc3C2)c(C)c1` [Example 179, 4-Methoxy-N,2,6-trimethyl-N-(2-(2-oxo-2-(2-(pyridin-4-ylmethyl)-5,6-dihydroimidazo[1,2-a]pyrazin-7(8H)-yl)ethoxy)ethyl)benzenesulfonamide], the inhibition at 10 µM in experiment [1] and in experiment [2] was 100% in each case.
With `COc1cc(C)c(S(=O)(=O)N(C)CCOCC(=O)N2CCn3cccc3C2c2cccs2)c(C)c1` (stereo not drawn) [Example 60, 4-Methoxy-N,2,6-trimethyl-N-(2-(2-oxo-2-(1-(thiophen-2-yl)-3,4-dihydropyrrolo[1,2-a]pyrazin-2(1H)-yl)ethoxy)ethyl)benzenesulfonamide], the inhibition at 10 µM in experiment [1] came out at 98%; in experiment [2], 100%.
The corresponding values for `COc1cc(C)c(S(=O)(=O)N(C)CCOCC(=O)N2CCn3c(CN4CCCC4)ccc3C2)c(C)c1` [Example 11, 4-methoxy-N,2,6-trimethyl-N-(2-(2-oxo-2-(6-(pyrrolidin-1-ylmethyl)-3,4-dihydropyrrolo[1,2-a]pyrazin-2(1H)-yl)ethoxy)ethyl)benzenesulfonamide] are 102% and 103%.
On to `COc1cc(C)c(S(=O)(=O)N(C)CCOCC(=O)N2CCn3cccc3C2c2ccc(Cl)nc2)c(C)c1C` (stereo not drawn) [Example 82, N-(2-(2-(1-(6-chloropyridin-3-yl)-3,4-dihydropyrrolo[1,2-a]pyrazin-2(1H)-yl)-2-oxoethoxy)ethyl)-4-methoxy-N,2,3,6-tetramethylbenzenesulfonamide], for which the inhibition at 10 µM in experiment [1] is 99%; in experiment [2], 101%.
`O=C(C[C@@H](NS(=O)(=O)c1ccc2ccccc2c1)c1ccccc1)N1CCn2c(CN3CCCCC3)nnc2C1` [Example 164, (R)-N-(3-oxo-1-phenyl-3-(3-(piperidin-1-ylmethyl)-5,6-dihydro-[1,2,4]triazolo[4,3-a]pyrazin-7(8H)-yl)propyl)naphthalene-2-sulfonamide]: the inhibition at 10 µM in experiment [1] was 102%.
Same read-out and setting: the figure for `COc1cc(C)c(S(=O)(=O)N(C)CCOCC(=O)N2CCn3c(CN4CCCCC4)nnc3C2)c(C)c1` [Example 163, 4-Methoxy-N,2,6-trimethyl-N-(2-(2-oxo-2-(3-(piperidin-1-ylmethyl)-5,6-dihydro-[1,2,4]triazolo[4,3-a]pyrazin-7(8H)-yl)ethoxy)ethyl)benzenesulfonamide] is 103%.
